Data taken from the supplement of paper PMC10307832.

Columns and labels:
Assay in all cases: relative viability (nuclei count vs DMSO), 5 days (fraction); higher = more cells survive
[1] = compound: CCN1C(=O)C2=CC(=C(N=C2N(C1=O)C3CC3)N)C(=O)N + Cc1nc(Nc2ncc(C(=O)Nc3c(C)cccc3Cl)s2)cc(N2CCN(CCO)CC2)n1 [Dasatinib] (partner 0.075 µM)
Summary of the method: (§1)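 Dosing by pin tool came one day after lung cancer cell lines were seeded in 1536-well plates, using either one drug or a fixed anchor-drug dose plus five library-drug doses (not always all listed) in √10 steps. After 5 days, nuclei were counted on 4× images. Relative viability is treated-well nuclei count divided by vehicle-well nuclei count, and values are medians of duplicate plates.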

[2] = compound: CCN1C(=O)C2=CC(=C(N=C2N(C1=O)C3CC3)N)C(=O)N + O=C(c1cc(Cc2n[nH]c(=O)c3ccccc23)ccc1F)N1CCN(C(=O)C2CC2)CC1 [Olaparib] (partner 8 µM)
Summary of the method: as §1

[3] = compound: CCN1C(=O)C2=CC(=C(N=C2N(C1=O)C3CC3)N)C(=O)N + O=C(CCCCCCC(=O)Nc1ccccc1)NO [Vorinostat] (partner 1 µM)
Summary of the method: as §1

[4] = compound: CCN1C(=O)C2=CC(=C(N=C2N(C1=O)C3CC3)N)C(=O)N + Cc1cc(Nc2cc(N3CCN(C)CC3)nc(Sc3ccc(NC(=O)C4CC4)cc3)n2)n[nH]1 [Tozasertib] (partner 0.1 µM)
Summary of the method: as §1

[5] = compound: CCN1C(=O)C2=CC(=C(N=C2N(C1=O)C3CC3)N)C(=O)N + C[C@]1(O)C[C@@H](c2nc(-c3ccc4ccc(-c5ccccc5)nc4c3)c3c(N)nccn32)C1 [Linsitinib] (partner 1 µM)
Summary of the method: as §1

| Cell Line | relative viability ([1]; first compound 0.253 µM) | relative viability ([1]; first compound 0.8 µM) | relative viability ([1]; first compound 2.53 µM) | relative viability ([1]; first compound 8 µM) | relative viability ([2]; first compound 0.253 µM) | relative viability ([2]; first compound 0.8 µM) | relative viability ([2]; first compound 2.53 µM) | relative viability ([2]; first compound 8 µM) | relative viability ([3]; first compound 0.253 µM) | relative viability ([3]; first compound 0.8 µM) | relative viability ([3]; first compound 2.53 µM) | relative viability ([3]; first compound 8 µM) | relative viability ([4]; first compound 0.253 µM) | relative viability ([4]; first compound 0.8 µM) | relative viability ([4]; first compound 2.53 µM) | relative viability ([4]; first compound 8 µM) | relative viability ([5]; first compound 0.253 µM) | relative viability ([5]; first compound 0.8 µM) | relative viability ([5]; first compound 2.53 µM) | relative viability ([5]; first compound 8 µM) |
| --- | --- | --- | --- | --- | --- | --- | --- | --- | --- | --- | --- | --- | --- | --- | --- | --- | --- | --- | --- | --- |
| 201T | 0.559 | 0.518 | 0.574 | 0.496 | 0.87 | 0.869 | 0.832 | 0.901 | 0.92 | 0.982 | 0.945 | 0.973 | 1.01 | 0.993 | 0.973 | 1.04 | 1 | 0.991 | 0.952 | 1.01 |
| A549 |  |  |  |  |  | 0.305 | 0.302 | 0.392 |  |  |  |  |  |  |  |  |  | 0.605 | 0.505 | 0.516 |
| A-427 | 0.729 | 0.825 | 0.744 | 0.779 | 0.763 | 0.792 | 0.703 | 0.744 | 0.923 | 0.926 | 0.842 | 0.852 | 0.223 | 0.226 | 0.208 | 0.206 | 1.24 | 1.11 | 1.04 | 1.1 |
| ABC-1 | 0.559 | 0.473 | 0.565 | 0.56 | 0.92 |  | 1.05 | 0.742 | 1.11 |  | 1.81 | 1.11 | 0.17 | 0.167 | 0.178 | 0.149 | 0.825 | 0.989 | 0.72 | 0.876 |
| BEN | 0.368 | 0.267 | 0.313 | 0.356 | 1.16 | 1.09 | 1.01 | 1.08 | 0.608 | 0.641 | 0.63 | 0.625 | 0.629 | 0.528 | 0.443 | 0.525 | 0.961 | 0.92 | 0.919 | 0.954 |
| CAL-12T | 0.466 | 0.377 | 0.452 | 0.462 | 0.734 | 0.717 | 0.682 | 0.658 | 0.771 | 0.642 | 0.659 | 0.803 | 0.271 | 0.269 | 0.282 | 0.223 | 0.792 | 0.773 | 0.721 | 0.776 |
| COR-L23 | 0.573 | 0.562 | 0.456 | 0.531 | 0.413 | 0.319 | 0.19 | 0.398 | 0.413 | 0.393 | 0.446 | 0.343 | 0.197 | 0.183 | 0.164 | 0.161 | 0.89 | 0.9 | 0.776 | 1.03 |
| COR-L 105 | 0.358 | 0.261 | 0.264 | 0.304 | 0.728 | 0.768 | 0.779 | 0.677 | 0.902 | 0.779 | 0.688 | 0.819 | 0.346 | 0.355 | 0.403 | 0.327 | 1.12 | 1.04 | 0.945 | 0.939 |
| ChaGo-K-1 | 0.6 | 0.664 | 0.614 | 0.527 | 0.442 | 0.437 | 0.404 | 0.434 | 0.793 | 0.764 | 0.72 | 0.748 | 0.218 | 0.215 | 0.221 | 0.2 |  |  |  |  |
